Reference: patent US9884063B2, “Amido-substituted azole compounds” (Bayer Pharma Aktiengesellschaft, priority 2014, dated 2018)

Key:
TNKS2 = target: T1, TNKS2 (Homo sapiens, UniProt Q9H2K2); assay: Modified TNKS2 Assay 2 (auto-parsylation, [3H]-NAD+ SPA); type: biochemical; conditions: 6 nM TNKS2, 96 well
T1 sequence (Q9H2K2 1-1166): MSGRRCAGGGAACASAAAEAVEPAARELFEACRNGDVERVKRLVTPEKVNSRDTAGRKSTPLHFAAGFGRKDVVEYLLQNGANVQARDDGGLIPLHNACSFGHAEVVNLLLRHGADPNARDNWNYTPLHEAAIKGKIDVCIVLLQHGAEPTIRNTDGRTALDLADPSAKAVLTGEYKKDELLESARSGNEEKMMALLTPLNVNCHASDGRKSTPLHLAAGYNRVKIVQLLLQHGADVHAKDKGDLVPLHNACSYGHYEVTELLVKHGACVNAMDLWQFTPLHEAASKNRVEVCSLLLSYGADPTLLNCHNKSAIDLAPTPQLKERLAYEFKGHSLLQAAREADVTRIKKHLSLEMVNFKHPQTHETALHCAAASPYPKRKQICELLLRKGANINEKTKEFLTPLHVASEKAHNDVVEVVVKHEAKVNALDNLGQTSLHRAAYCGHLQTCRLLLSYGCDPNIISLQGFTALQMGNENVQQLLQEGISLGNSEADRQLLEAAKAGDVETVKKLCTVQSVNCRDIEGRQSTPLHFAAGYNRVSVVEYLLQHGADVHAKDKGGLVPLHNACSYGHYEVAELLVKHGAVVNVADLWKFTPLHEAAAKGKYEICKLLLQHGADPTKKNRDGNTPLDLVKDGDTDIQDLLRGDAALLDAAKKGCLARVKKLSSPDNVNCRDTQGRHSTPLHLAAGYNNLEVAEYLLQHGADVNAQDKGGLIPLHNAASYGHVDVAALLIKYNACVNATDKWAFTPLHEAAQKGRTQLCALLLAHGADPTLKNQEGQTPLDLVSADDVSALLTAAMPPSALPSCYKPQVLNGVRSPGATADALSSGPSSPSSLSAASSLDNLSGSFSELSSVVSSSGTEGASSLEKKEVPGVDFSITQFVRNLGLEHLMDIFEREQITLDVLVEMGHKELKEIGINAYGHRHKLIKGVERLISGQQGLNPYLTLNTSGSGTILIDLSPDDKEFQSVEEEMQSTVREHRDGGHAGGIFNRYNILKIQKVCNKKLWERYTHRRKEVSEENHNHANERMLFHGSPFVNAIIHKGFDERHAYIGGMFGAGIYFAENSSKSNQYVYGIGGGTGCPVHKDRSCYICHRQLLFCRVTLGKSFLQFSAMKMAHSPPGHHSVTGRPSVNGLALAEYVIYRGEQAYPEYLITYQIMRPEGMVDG

[1] = tested on: wildtype Wnt signaling cascade; assay: HEK293 TOP Assay (Super TopFlash luciferase reporter, Wnt-3a stimulated); type: cell-based
In short: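 HEK293 cells stably carrying Super TopFlash (TOP) or FOP reporter, stimulated with recombinant human Wnt-3a (2500–5 ng/ml, two-fold steps). Both lines incubated in parallel with compound from 50 μM to 15 nM (3.16-fold) in CAFTY buffer pH 7.4 with 2 mM Ca2+ and 0.01% BSA; selectivity judged TOP vs FOP.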

[2] = Homo sapiens, HEK293, 16 h, HEK293 TOP reporter cell line, Wnt-3a at EC50, 16 hours incubation, compound dilution series 50 μM to 15 nM
[3] = Homo sapiens, HEK293, 16 h, HEK293 TOP reporter cells, Wnt3a at EC50, 16 hours, luciferase

| SMILES | IC50 (TNKS2) | IC50 ([1]; HEK293 TOP reporter cell line, Wnt-3a at EC50, 16 hours incubation, compound dilution series 50 μM to 15 nM) | IC50 [1, 2] | IC50 [1, 3] |
| --- | --- | --- | --- | --- |
| CC(CN1CCOCC1)NC(=O)c1[nH]cnc1C(=O)Nc1ccc(NC(=O)c2ccc(F)cc2Cl)cc1 (single isomer, unassigned; enantiomer 2) [Example 270, N^4-{4-[(2-chloro-4-fluorobenzoyl)amino]phenyl}-N^5-[1-(morpholin-4-yl)propan-2-yl]-1H-imidazole-4,5-dicarboxamide (enantiomer 2)] | 0.003 µM | 0.04 µM | – | – |
| CNC(=O)c1nc[nH]c1C(=O)Nc1ccc(NC(=O)c2ccccc2)cc1 [Example 21, N^5-[4-(benzoylamino)phenyl]-N^4-methyl-1H-imidazole-4,5-dicarboxamide] | > 10 µM | – | 12 µM | 12 µM |
| CN(C)CCNC(=O)c1nc[nH]c1C(=O)Nc1ccc(NC(=O)c2ccc(F)cc2Cl)cc1 [Example 22, N^4-{4-[(2-chloro-4-fluorobenzoyl)amino]phenyl}-N^5-[2-(dimethylamino)ethyl]-1H-imidazole-4,5-dicarboxamide] | 0.02 µM | – | 0.14 µM | 0.13 µM |
| O=C(Nc1ccc(NC(=O)c2[nH]cnc2C(=O)N2CCOCC2)cc1)c1ccc(F)cc1Cl [Example 29, N-{4-[(2-chloro-4-fluorobenzoyl)amino]phenyl}-5-(morpholin-4-ylcarbonyl)-1H-imidazole-4-carboxamide] | 1.9 µM | – | 3.93 µM | 3.92 µM |
| O=C(Nc1ccc(NC(=O)c2[nH]cnc2C(=O)NCCN2CCCCC2)cc1)c1ccc(F)cc1Cl [Example 32, N^4-{4-[(2-chloro-4-fluorobenzoyl)amino]phenyl}-N^5-[2-(piperidin-1-yl)ethyl]-1H-imidazole-4,5-dicarboxamide] | 0.0003 µM | – | 0.02 µM | 0.02 µM |
| CNC(=O)c1nc[nH]c1C(=O)Nc1ccc(NC(=O)c2c(Cl)cccc2C(F)(F)F)cc1 [Example 36, N^5-(4-{[2-chloro-6-(trifluoromethyl)benzoyl]amino}phenyl)-N^4-methyl-1H-imidazole-4,5-dicarboxamide] | > 10 µM | – | 6.15 µM | 6.15 µM |
| CCc1ccccc1C(=O)Nc1ccc(NC(=O)c2[nH]cnc2C(=O)NC)cc1 [Example 39, N^5-{4-[(2-ethylbenzoyl)amino]phenyl}-N^4-methyl-1H-imidazole-4,5-dicarboxamide] | 2.2 µM | – | 1.7 µM | 1.7 µM |
| O=C(Nc1ccc(NC(=O)c2[nH]cnc2C(=O)NCCC2CCCC2)cc1)c1ccc(F)cc1Cl [Example 42, N^5-{4-[(2-chloro-4-fluorobenzoyl)amino]phenyl}-N^4-(2-cyclopentylethyl)-1H-imidazole-4,5-dicarboxamide] | > 10 µM | – | 2.3 µM | – |
| O=C(Nc1ccc(NC(=O)c2[nH]cnc2C(=O)NCCC2CC2)cc1)c1ccc(F)cc1Cl [Example 43, N^5-{4-[(2-chloro-4-fluorobenzoyl)amino]phenyl}-N^4-(2-cyclopropylethyl)-1H-imidazole-4,5-dicarboxamide] | > 10 µM | – | 0.53 µM | – |
| CN1CC2(C1)CN(C(=O)c1nc[nH]c1C(=O)Nc1ccc(NC(=O)c3ccc(F)cc3Cl)cc1)C2 [Example 46, N-{4-[(2-chloro-4-fluorobenzoyl)amino]phenyl}-4-[(6-methyl-2,6-diazaspiro[3.3]hept-2-yl)carbonyl]-1H-imidazole-5-carboxamide] | 1.1 µM | – | 0.29 µM | – |
| O=C(Nc1ccc(NC(=O)c2[nH]cnc2C(=O)NCCC2CCCC2)cc1)c1cc(F)c(F)cc1Cl [Example 48, N^5-{4-[(2-chloro-4,5-difluorobenzoyl)amino]phenyl}-N^4-(2-cyclopentylethyl)-1H-imidazole-4,5-dicarboxamide] | > 10 µM | – | 2.65 µM | – |
| O=C(Nc1ccc(NC(=O)c2[nH]cnc2C(=O)NC2CC2)cc1)c1cc(F)c(F)cc1Cl [Example 51, N^5-{4-[(2-chloro-4,5-difluorobenzoyl)amino]phenyl}-N^4-cyclopropyl-1H-imidazole-4,5-dicarboxamide] | 0.05 µM | – | 0.14 µM | – |
| O=C(Nc1ccc(NC(=O)c2[nH]cnc2C(=O)N2CC3(COC3)C2)cc1)c1cc(F)c(F)cc1Cl [Example 52, N-{4-[(2-chloro-4,5-difluorobenzoyl)amino]phenyl}-4-(2-oxa-6-azaspiro[3.3]hept-6-ylcarbonyl)-1H-imidazole-5-carboxamide] | 0.22 µM | – | 0.61 µM | – |
| CS(=O)(=O)c1ccc(C(=O)Nc2ccc(NC(=O)c3[nH]cnc3C(=O)NCCN3CCCCC3)cc2)c(Cl)c1 [Example 53, N^5-(4-{[2-chloro-4-(methylsulfonyl)benzoyl]amino}phenyl)-N^4-[2-(piperidin-1-yl)ethyl]-1H-imidazole-4,5-dicarboxamide] | 0.01 µM | – | 0.04 µM | – |
| CNC(=O)c1nc[nH]c1C(=O)Nc1ccc(NC(=O)c2ccc(S(C)(=O)=O)cc2Cl)cc1 [Example 55, N^5-(4-{[2-chloro-4-(methylsulfonyl)benzoyl]amino}phenyl)-N^4-methyl-1H-imidazole-4,5-dicarboxamide] | 0.07 µM | – | 0.27 µM | – |
| CNC(=O)c1nc[nH]c1C(=O)Nc1ccc(NC(=O)c2ccc(F)cc2Br)cc1 [Example 56, N^5-{4-[(2-bromo-4-fluorobenzoyl)amino]phenyl}-N^4-methyl-1H-imidazole-4,5-dicarboxamide] | 0.57 µM | – | 0.12 µM | – |
| CNC(=O)c1nc[nH]c1C(=O)Nc1ccc(NC(=O)c2ccccc2OC)cc1 [Example 60, N^5-{4-[(2-methoxybenzoyl)amino]phenyl}-N^4-methyl-1H-imidazole-4,5-dicarboxamide] | > 10 µM | – | 15.5 µM | – |
| CNC(=O)c1nc[nH]c1C(=O)Nc1ccc(NC(=O)c2ccc(F)cc2I)cc1 [Example 61, N^5-{4-[(4-fluoro-2-iodobenzoyl)amino]phenyl}-N^4-methyl-1H-imidazole-4,5-dicarboxamide] | 0.06 µM | – | 0.1 µM | – |
| O=C(Nc1ccc(NC(=O)c2[nH]cnc2C(=O)NCCN2CCCCC2)cc1)c1ccc(F)cc1I [Example 62, N^5-{4-[(4-fluoro-2-iodobenzoyl)amino]phenyl}-N^4-[2-(piperidin-1-yl)ethyl]-1H-imidazole-4,5-dicarboxamide] | 0.31 µM | – | 0.01 µM | – |
| CNC(=O)c1nc[nH]c1C(=O)Nc1ccc(NC(=O)c2cc(OC(F)(F)F)ccc2Br)cc1 [Example 64, N^5-(4-{[2-bromo-5-(trifluoromethoxy)benzoyl]amino}phenyl)-N^4-methyl-1H-imidazole-4,5-dicarboxamide] | > 10 µM | – | 1.45 µM | – |
| Cc1nc(C(=O)Nc2ccc(NC(=O)c3ccc(F)cc3Cl)cc2)c(C(=O)NCCN(C)C)[nH]1 [Example 66, N^4-{4-[(2-chloro-4-fluorobenzoyl)amino]phenyl}-N^5-[2-(dimethylamino)ethyl]-2-methyl-1H-imidazole-4,5-dicarboxamide] | 0.04 µM | – | 0.31 µM | – |
| Cc1nc(C(=O)Nc2ccc(NC(=O)c3ccc(F)cc3Cl)cc2)c(C(=O)NCCN2CCCCC2)[nH]1 [Example 67, N^4-{4-[(2-chloro-4-fluorobenzoyl)amino]phenyl}-2-methyl-N^5-[2-(piperidin-1-yl)ethyl]-1H-imidazole-4,5-dicarboxamide] | 0.03 µM | – | 0.07 µM | – |
